Converted amounts (≈) assume the structure as drawn. Where two headings read alike, the source gives them in different places.
What was measured:
[1] = Water Solubility Assay (measured in pH 7.8 buffer); format: physicochemical; settings: for Water Solubility Assay: pH 7.8; for solubility at 18 h: 25 °C;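 on all read-outs here: precipitation onset detected as rise in absorbance at 650 nm across increasing concentrations, after shaking for 18 h, blank wells receiving DMSO only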
[2] = biological target: T1, Human recombinant cyclophilin A (Cyp A) (Homo sapiens, UniProt P62937);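 further: cis to trans isomerization of SUC-AAPF-pNA by 2 nM enzyme, read as absorbance at 330 nm over 300 s at 10 °C, catalytic rate corrected for uncatalyzed background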
Calcineurin [3] = biological target: T2, Calcineurin (Homo sapiens, UniProt P62937+P63098+Q08209)
[4] = biological target: T1, Human recombinant cyclophilin A (Cyp A); experiment: Protease-free PPIase assay;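 further: cis to trans isomerization of SUC-AAPF-pNA by 2 nM enzyme, read as absorbance at 330 nm over 300 s at 10 °C, catalytic rate corrected for uncatalyzed background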
Calcineurin [5] = biological target: T2, Calcineurin; experiment: Calcineurin Phosphatase (CaN) Assay with Cyp A (+CypA); settings: read-out: Calcineurin Phosphatase (CaN) Assay (+CypA) IC50; in the presence of Cyp A, 1:1 complex with inhibitor
[6] = 35 mM HEPES pH 7.8, 1% DMSO, 18 h, read-out: Water Solubility Assay, concentration at which the compound remains in solution
[7] = read-out: Protease-free PPIase Assay Ki, cyclophilin A, 10 °C

T2 sequence (P63098 whole entry, other chains not shown): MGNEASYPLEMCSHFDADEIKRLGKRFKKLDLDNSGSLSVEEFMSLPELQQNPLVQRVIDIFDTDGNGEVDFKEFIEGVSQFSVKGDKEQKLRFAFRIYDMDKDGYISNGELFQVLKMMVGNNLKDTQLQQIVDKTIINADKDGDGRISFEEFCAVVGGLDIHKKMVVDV
T2 sequence (P62937 whole entry, other chains not shown): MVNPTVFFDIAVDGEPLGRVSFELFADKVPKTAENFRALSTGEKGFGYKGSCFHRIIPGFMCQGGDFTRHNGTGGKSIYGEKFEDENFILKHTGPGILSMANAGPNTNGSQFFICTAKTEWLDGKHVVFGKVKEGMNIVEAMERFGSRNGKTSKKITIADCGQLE
T1 sequence (P62937 whole entry): as the sequence (P62937 whole entry, other chains not shown) above

| SMILES | Water Solubility Assay [1] | Ki [2] | solubility at 18 h ([1]; pH 7.8, aqueous buffer, kinetic from dmso stock) | Ki [4] | immunosuppressive potential (Calcineurin [3]) | solubility at 18 h [1, 6] | Ki [4, 7] | IC50 (Calcineurin [5]) |
| --- | --- | --- | --- | --- | --- | --- | --- | --- |
| CC[C@H]1NC(=O)[C@@H]([C@H](O)[C@H](C)CCN2CC(F)(F)OC(F)(F)C2)N(C)C(=O)[C@@H](C(C)C)N(C)C(=O)[C@@H](CC(C)C)N(C)C(=O)[C@@H](CC(C)C)N(C)C(=O)[C@H](C)NC(=O)[C@@H](C)NC(=O)[C@@H](CC(C)C)N(C)C(=O)[C@@H](C(C)C)NC(=O)[C@H](CC(C)C)N(C)C(=O)[C@@H](C)N(C)C1=O [Compound EK, [(3R,4R,5S)-4-Hydroxy-3-methyl-5-(methylamino)-1-(2,2,6,6-tetrafluoro-morpholin-4-yl)-hexanoic acid]^1[(R)-methyl-Sar]^3 cyclosporin A] | 25 to 50 µM | 12 nM |  |  | more immunosuppressive potential than others |  |  |  |
| CC[C@H]1NC(=O)[C@@H]([C@H](O)[C@H](C)CCCC(=O)N2CCOCC2)N(C)C(=O)[C@@H](C(C)C)N(C)C(=O)[C@@H](CC(C)C)N(C)C(=O)[C@@H](CC(C)C)N(C)C(=O)[C@H](C)NC(=O)[C@@H](C)NC(=O)[C@@H](CC(C)C)N(C)C(=O)[C@@H](C(C)C)NC(=O)[C@H](CC(C)C)N(C)C(=O)[C@@H](C)N(C)C1=O [Compound H, [(5R,6R,7S)-6-hydroxy-5-methyl-7-(methylamino)-1-N-morpholino-1-oxo-octanoic acid]^1[(R)-methyl-Sar]^3 cyclosporin A] |  |  |  |  |  | >100 µM | 3.9 nM | > 10000 nM |
| CCC1NC(=O)C(C(O)C(C)CCN2CCOCC2)N(C)C(=O)C(C(C)C)N(C)C(=O)C(CC(C)C)N(C)C(=O)C(CC(C)C)N(C)C(=O)C(C)NC(=O)C(C)NC(=O)C(CC(C)C)N(C)C(=O)C(C(C)C)NC(=O)C(CC(C)C)N(C)C(=O)C(CC)N(C)C1=O [Compound AB, [(3R,4R,5S)-4-hydroxy-3-methyl-5-(methylamino)-1-N-morpholino-hexanoic acid]^1[(R)-ethyl-Sar]^3 cyclosporin A] |  |  |  |  |  | >100 µM | 5.6 nM | > 10000 nM |
| CC[C@H]1NC(=O)[C@@H]([C@H](O)[C@H](C)CCCCCN2CCOCC2)N(C)C(=O)[C@@H](C(C)C)N(C)C(=O)[C@@H](CC(C)C)N(C)C(=O)[C@@H](CC(C)C)N(C)C(=O)[C@H](C)NC(=O)[C@@H](C)NC(=O)[C@@H](CC(C)C)N(C)C(=O)[C@@H](C(C)C)NC(=O)[C@H](CC(C)C)N(C)C(=O)[C@@H](C)N(C)C1=O [Compound G, [(6R,7R,8S)-7-hydroxy-6-methyl-8-(methylamino)-1-N-morpholino-nonanoic acid]^1[(R)-methyl-Sar]^3 cyclosporin A] |  |  |  |  |  | >100 µM | 6.2 nM | > 10000 nM |
| CC[C@H]1NC(=O)[C@@H]([C@H](O)[C@H](C)CCN2CCCOCC2)N(C)C(=O)[C@@H](C(C)C)N(C)C(=O)[C@@H](CC(C)C)N(C)C(=O)[C@@H](CC(C)C)N(C)C(=O)[C@H](C)NC(=O)[C@@H](C)NC(=O)[C@@H](CC(C)C)N(C)C(=O)[C@@H](C(C)C)NC(=O)[C@H](CC(C)C)N(C)C(=O)[C@@H](C)N(C)C1=O [Compound X] |  |  |  |  |  | >100 µM | 4.9 nM | > 10000 nM |

More lines, main results first:

| Water Solubility Assay [1] | Ki [2] | solubility at 18 h ([1]; pH 7.8, aqueous buffer, kinetic from dmso stock) | Ki [4] | SMILES | immunosuppressive potential (Calcineurin [3]) | solubility at 18 h [1, 6] | Ki [4, 7] | IC50 (Calcineurin [5]) |
| --- | --- | --- | --- | --- | --- | --- | --- | --- |
| 25 to 50 µM | 6.7 nM |  |  | CC[C@H]1NC(=O)[C@@H]([C@H](O)[C@H](C)CCN2CCC(F)(F)CC2)N(C)C(=O)[C@@H](C(C)C)N(C)C(=O)[C@@H](CC(C)C)N(C)C(=O)[C@@H](CC(C)C)N(C)C(=O)[C@H](C)NC(=O)[C@@H](C)NC(=O)[C@@H](CC(C)C)N(C)C(=O)[C@@H](C(C)C)NC(=O)[C@H](CC(C)C)N(C)C(=O)[C@@H](C)N(C)C1=O [Compound EN, [(3R,4R,5S)-(4,4-Difluoro-piperidin-1-yl)-4-hydroxy-3-methyl-5-(methylamino)-1-hexanoic acid]^1[(R)-methyl-Sar]^3 cyclosporin A] | more immunosuppressive potential than others |  |  |  |
| 25 to 50 µM | 4.6 nM |  |  | CCC1NC(=O)C(C(O)C(C)CCN(CCC(F)(F)F)CCC(F)(F)F)N(C)C(=O)C(C(C)C)N(C)C(=O)C(CC(C)C)N(C)C(=O)C(CC(C)C)N(C)C(=O)C(C)NC(=O)C(C)NC(=O)C(CC(C)C)N(C)C(=O)C(C(C)C)NC(=O)C(CC(C)C)N(C)C(=O)C(C)N(C)C1=O [Compound EQ, (3R,4R,5S)-1-[Bis-(3,3,3-trifluoro-propyl)-amino]-[(4-Hydroxy-3-methyl-5-(methylamino)-hexanoic acid]^1[(R)-methyl-Sar]^3 cyclosporin A] | more immunosuppressive potential than others |  |  |  |
|  |  | 50 to 75 µM (≈ 65.6 to 98.4 µg/mL) | 3.4 nM | CC[C@H]1NC(=O)[C@@H]([C@H](O)[C@H](C)CCN2CCC(F)(F)C2)N(C)C(=O)[C@@H](C(C)C)N(C)C(=O)[C@@H](CC(C)C)N(C)C(=O)[C@@H](CC(C)C)N(C)C(=O)[C@H](C)NC(=O)[C@@H](C)NC(=O)[C@@H](CC(C)C)N(C)C(=O)[C@@H](C(C)C)NC(=O)[C@H](CC(C)C)N(C)C(=O)[C@@H](CO)N(C)C1=O [Compound EP] | more immunosuppressive potential than others |  |  |  |
| 75 to 100 µM | 9.5 nM |  |  | CC[C@H]1NC(=O)[C@@H]([C@H](O)[C@H](C)CCN2CC(F)(F)C2)N(C)C(=O)[C@@H](C(C)C)N(C)C(=O)[C@@H](CC(C)C)N(C)C(=O)[C@@H](CC(C)C)N(C)C(=O)[C@H](C)NC(=O)[C@@H](C)NC(=O)[C@@H](CC(C)C)N(C)C(=O)[C@@H](C(C)C)NC(=O)[C@H](CC(C)C)N(C)C(=O)[C@@H](C)N(C)C1=O [Compound EM, [(3R,4R,5S)-(3,3-Difluoro-azetidin-1-yl)-4-hydroxy-3-methyl-5-(methylamino)-1-hexanoic acid]^1[(R)-methyl-Sar]^3 cyclosporin A] | more immunosuppressive potential than others |  |  |  |
| 75 to 100 µM | 10 nM |  |  | CC[C@H]1NC(=O)[C@@H]([C@H](O)[C@H](C)CCN2CCC(F)(F)C2)N(C)C(=O)[C@@H](C(C)C)N(C)C(=O)[C@@H](CC(C)C)N(C)C(=O)[C@@H](CC(C)C)N(C)C(=O)[C@H](C)NC(=O)[C@@H](C)NC(=O)[C@@H](CC(C)C)N(C)C(=O)[C@@H](C(C)C)NC(=O)[C@H](CC(C)C)N(C)C(=O)[C@@H](C)N(C)C1=O [Compound EL, [(3R,4R,5S)-(3,3-Difluoro-pyrrolidin-1-yl)-4-Hydroxy-3-methyl-5-(methylamino)-1-hexanoic acid]^1[(R)-methyl-Sar]^3 cyclosporin A] | more immunosuppressive potential than others |  |  |  |
| 25 to 50 µM | 6.7 nM |  |  | CC[C@H]1NC(=O)[C@@H]([C@H](O)[C@H](C)CCN2CC(F)(F)C(F)(F)C2)N(C)C(=O)[C@@H](C(C)C)N(C)C(=O)[C@@H](CC(C)C)N(C)C(=O)[C@@H](CC(C)C)N(C)C(=O)[C@H](C)NC(=O)[C@@H](C)NC(=O)[C@@H](CC(C)C)N(C)C(=O)[C@@H](C(C)C)NC(=O)[C@H](CC(C)C)N(C)C(=O)[C@@H](C)N(C)C1=O [Compound ER, [(3R,4R,5S)-4-Hydroxy-3-methyl-5-(methylamino)-1-(3,3,4,4-tetrafluoro-pyrrolidin-1-yl)-hexanoic acid]^1[(R)-methyl-Sar]^3 cyclosporin A] | more immunosuppressive potential than others |  |  |  |

— US20160039880A1 (priority 2012, published 2016)
